Assays:
Experiment in all cases: biochemical
Set-up in all cases: KINOMEscan scanMAX active site-directed competition binding assay, percent of control, 468 kinases
Settings in all cases: competition binding, percent of control
[1] = molecular target: T1, JAK1(JH2domain-pseudokinase) (Homo sapiens, UniProt P23458)
T1 construct: JH2domain-pseudokinase
Summary of the method: (§1)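 Single-concentration screen (100 μM S-carvone) in a competition binding panel of 468 human kinases (KINOMEscan scanMAX); results given as percent of control, hit cutoff 35%.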

[2] = molecular target: ULK2 (Homo sapiens, UniProt Q8IYT8)
Summary of the method: as §1

[3] = molecular target: PDPK1 (Homo sapiens, UniProt O15530)
Summary of the method: as §1

[4] = molecular target: EGFR(L747-E749del, A750P) (Homo sapiens, UniProt P00533, A750P/DEL747-749)
Summary of the method: as §1

[5] = molecular target: PLK1 (Homo sapiens, UniProt P53350)
Summary of the method: as §1

[6] = molecular target: IRAK4 (Homo sapiens, UniProt Q9NWZ3)
Summary of the method: as §1

[7] = molecular target: MYO3A (Homo sapiens, UniProt Q8NEV4)
Summary of the method: as §1

[8] = molecular target: IRAK3 (Homo sapiens, UniProt Q9Y616)
Summary of the method: as §1

[9] = molecular target: MARK2 (Homo sapiens, UniProt Q7KZI7)
Summary of the method: as §1

[10] = molecular target: PIK3CB (Homo sapiens, UniProt P42338)
Summary of the method: as §1

[11] = molecular target: INSR (Homo sapiens, UniProt P06213)
Summary of the method: as §1

[12] = molecular target: T2, DMPK2 (Homo sapiens, UniProt Q6DT37)
T2 construct: gene CDC42BPG
Summary of the method: as §1

[13] = molecular target: T3, ABL1(E255K)-phosphorylated (Homo sapiens, UniProt P00519, E255K)
T3 construct: phosphorylated
Summary of the method: as §1

[14] = molecular target: SLK (Homo sapiens, UniProt Q9H2G2)
Summary of the method: as §1

[15] = molecular target: CAMKK1 (Homo sapiens, UniProt Q8N5S9)
Summary of the method: as §1

[16] = molecular target: MET(Y1235D) (Homo sapiens, UniProt P08581, Y1235D)
Summary of the method: as §1

[17] = molecular target: ACVR2A (Homo sapiens, UniProt P27037)
Summary of the method: as §1

[18] = molecular target: FLT3(N841I) (Homo sapiens, UniProt P36888, N841I)
Summary of the method: as §1

[19] = molecular target: FLT3(ITD) (Homo sapiens, UniProt P36888, ITD)
Summary of the method: as §1

[20] = molecular target: CSNK1G1 (Homo sapiens, UniProt Q9HCP0)
Summary of the method: as §1

[21] = molecular target: T4, PKAC-alpha (Homo sapiens, UniProt P17612)
T4 construct: gene PRKACA
Summary of the method: as §1

Chain of PLK1 (P53350 whole entry): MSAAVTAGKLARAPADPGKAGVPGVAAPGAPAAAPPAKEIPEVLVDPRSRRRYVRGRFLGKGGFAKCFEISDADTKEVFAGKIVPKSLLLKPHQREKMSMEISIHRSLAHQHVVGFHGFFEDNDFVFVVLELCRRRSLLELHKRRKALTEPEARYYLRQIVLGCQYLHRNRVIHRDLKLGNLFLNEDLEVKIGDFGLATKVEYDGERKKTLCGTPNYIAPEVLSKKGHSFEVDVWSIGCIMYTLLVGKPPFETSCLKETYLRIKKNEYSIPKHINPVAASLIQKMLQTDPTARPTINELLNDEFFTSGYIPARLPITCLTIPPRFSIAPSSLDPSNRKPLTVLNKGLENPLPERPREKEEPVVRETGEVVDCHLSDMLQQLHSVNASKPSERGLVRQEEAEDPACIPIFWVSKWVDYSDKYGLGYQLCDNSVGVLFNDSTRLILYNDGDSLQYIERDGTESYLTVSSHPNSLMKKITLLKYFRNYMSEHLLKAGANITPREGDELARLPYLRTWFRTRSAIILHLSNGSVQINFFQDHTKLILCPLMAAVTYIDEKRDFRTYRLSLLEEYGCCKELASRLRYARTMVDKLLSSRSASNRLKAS
Chain of CAMKK1 (Q8N5S9 whole entry): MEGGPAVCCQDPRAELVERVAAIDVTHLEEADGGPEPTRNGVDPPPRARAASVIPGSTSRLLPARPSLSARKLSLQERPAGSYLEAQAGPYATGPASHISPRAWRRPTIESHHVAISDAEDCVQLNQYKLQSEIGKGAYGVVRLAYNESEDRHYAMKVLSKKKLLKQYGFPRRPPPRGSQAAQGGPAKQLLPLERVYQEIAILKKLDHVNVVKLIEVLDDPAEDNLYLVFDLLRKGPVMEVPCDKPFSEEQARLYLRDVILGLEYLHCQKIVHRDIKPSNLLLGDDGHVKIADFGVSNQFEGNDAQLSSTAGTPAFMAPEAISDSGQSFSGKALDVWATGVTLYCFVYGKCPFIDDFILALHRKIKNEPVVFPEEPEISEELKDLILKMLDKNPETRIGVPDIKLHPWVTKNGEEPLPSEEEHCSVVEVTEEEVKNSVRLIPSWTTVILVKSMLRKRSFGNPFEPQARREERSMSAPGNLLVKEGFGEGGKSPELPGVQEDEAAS
Chain of ULK2 (Q8IYT8 whole entry): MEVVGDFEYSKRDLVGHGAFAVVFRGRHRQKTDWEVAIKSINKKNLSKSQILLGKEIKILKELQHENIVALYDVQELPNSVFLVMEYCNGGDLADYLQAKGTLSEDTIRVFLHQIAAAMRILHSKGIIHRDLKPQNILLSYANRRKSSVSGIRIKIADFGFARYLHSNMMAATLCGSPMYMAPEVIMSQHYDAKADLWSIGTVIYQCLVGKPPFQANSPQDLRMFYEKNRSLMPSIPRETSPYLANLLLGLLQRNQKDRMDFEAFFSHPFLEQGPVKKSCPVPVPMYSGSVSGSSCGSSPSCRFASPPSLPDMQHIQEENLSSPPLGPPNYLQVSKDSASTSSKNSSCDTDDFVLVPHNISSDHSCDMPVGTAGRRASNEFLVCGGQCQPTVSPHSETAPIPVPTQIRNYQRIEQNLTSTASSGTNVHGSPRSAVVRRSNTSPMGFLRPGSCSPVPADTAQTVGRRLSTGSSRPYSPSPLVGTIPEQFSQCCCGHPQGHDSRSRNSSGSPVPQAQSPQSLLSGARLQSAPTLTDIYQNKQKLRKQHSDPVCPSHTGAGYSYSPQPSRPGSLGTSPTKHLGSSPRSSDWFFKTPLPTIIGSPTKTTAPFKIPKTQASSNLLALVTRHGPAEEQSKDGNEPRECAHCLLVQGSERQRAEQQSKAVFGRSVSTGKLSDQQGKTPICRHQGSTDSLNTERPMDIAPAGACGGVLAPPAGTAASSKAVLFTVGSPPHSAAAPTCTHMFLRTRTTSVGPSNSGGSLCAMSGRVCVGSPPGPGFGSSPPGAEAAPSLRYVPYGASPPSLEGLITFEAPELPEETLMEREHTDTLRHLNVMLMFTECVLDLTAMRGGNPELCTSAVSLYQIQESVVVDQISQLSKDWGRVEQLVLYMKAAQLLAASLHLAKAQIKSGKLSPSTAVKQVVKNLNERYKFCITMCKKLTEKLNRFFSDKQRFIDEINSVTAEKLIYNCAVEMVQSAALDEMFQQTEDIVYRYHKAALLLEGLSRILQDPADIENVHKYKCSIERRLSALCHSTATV
Chain of MYO3A (Q8NEV4 whole entry): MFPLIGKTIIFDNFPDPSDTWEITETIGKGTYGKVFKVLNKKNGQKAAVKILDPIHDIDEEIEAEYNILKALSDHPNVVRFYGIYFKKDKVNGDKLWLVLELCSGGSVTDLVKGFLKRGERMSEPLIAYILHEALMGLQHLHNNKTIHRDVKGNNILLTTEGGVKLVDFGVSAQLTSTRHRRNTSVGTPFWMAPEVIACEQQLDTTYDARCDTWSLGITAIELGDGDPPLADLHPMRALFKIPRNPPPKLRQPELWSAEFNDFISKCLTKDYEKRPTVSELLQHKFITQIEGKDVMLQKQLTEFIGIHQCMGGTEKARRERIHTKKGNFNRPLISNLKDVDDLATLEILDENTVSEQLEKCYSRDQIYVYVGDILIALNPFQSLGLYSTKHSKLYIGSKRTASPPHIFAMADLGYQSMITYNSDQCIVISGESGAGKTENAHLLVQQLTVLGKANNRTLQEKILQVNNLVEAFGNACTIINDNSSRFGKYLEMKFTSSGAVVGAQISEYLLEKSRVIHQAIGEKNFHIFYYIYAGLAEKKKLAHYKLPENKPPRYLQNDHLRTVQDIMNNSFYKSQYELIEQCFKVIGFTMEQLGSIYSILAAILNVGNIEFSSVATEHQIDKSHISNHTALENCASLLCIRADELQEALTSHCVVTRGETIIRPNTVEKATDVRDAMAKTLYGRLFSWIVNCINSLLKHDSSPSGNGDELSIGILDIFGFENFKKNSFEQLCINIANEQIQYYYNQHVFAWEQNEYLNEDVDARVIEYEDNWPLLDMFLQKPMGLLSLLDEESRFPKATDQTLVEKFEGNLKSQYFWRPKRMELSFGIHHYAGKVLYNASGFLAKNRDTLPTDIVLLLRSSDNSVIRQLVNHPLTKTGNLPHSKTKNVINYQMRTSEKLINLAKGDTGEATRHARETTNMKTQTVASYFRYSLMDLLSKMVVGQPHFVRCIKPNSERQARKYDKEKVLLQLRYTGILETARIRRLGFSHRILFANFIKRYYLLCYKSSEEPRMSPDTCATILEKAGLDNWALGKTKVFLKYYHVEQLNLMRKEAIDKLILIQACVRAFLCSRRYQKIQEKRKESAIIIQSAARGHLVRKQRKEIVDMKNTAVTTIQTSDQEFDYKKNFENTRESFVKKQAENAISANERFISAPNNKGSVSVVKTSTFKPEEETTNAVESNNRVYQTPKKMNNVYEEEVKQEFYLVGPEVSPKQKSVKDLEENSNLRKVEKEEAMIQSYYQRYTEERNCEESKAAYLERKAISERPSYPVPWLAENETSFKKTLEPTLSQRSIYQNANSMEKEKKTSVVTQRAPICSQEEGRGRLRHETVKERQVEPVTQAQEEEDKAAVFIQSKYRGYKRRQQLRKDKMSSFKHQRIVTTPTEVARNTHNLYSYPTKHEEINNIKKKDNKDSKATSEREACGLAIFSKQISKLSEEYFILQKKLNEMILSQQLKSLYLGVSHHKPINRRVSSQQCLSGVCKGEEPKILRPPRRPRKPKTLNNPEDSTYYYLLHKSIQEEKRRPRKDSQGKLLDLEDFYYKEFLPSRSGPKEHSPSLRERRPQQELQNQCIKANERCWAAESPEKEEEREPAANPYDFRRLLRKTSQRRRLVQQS
Chain of PIK3CB (P42338 whole entry): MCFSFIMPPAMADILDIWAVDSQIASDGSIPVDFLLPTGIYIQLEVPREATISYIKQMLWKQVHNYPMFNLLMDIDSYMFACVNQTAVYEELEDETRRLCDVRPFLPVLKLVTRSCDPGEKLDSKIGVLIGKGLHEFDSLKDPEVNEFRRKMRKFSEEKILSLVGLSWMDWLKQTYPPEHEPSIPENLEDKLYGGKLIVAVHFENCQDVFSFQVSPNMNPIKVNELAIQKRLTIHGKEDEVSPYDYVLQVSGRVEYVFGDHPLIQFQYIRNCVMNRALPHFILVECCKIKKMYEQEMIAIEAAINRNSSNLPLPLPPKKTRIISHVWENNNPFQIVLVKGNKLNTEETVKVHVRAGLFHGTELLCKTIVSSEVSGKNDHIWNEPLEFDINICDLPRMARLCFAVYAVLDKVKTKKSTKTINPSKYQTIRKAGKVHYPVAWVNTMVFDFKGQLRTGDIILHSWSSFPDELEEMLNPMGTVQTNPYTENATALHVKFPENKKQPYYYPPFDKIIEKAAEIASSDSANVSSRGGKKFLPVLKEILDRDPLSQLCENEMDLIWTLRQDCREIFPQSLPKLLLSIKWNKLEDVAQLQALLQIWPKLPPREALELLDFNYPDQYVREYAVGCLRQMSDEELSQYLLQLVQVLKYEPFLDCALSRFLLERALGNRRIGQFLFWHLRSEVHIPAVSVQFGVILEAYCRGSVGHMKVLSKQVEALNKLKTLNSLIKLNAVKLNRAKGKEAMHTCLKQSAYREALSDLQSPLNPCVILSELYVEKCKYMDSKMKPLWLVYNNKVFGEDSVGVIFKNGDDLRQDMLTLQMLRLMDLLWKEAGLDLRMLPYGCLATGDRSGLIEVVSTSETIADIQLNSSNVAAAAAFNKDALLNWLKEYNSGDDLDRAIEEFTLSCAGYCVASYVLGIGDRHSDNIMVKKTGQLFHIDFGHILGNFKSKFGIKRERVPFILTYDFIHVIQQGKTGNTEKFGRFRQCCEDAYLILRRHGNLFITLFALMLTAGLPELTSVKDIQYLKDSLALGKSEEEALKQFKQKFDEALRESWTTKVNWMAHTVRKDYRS

Q: Which results are given for C=C(C)[C@H]1CC=C(C)C(=O)C1 [S-carvone]?
A: remaining binding at 100 µM [1]: 58%; remaining binding at 100 µM [2]: 75%; remaining binding at 100 µM [3]: 74%; remaining binding at 100 µM [4]: 86%; remaining binding at 100 µM [5]: 68%; remaining binding at 100 µM [6]: 68%; remaining binding at 100 µM [7]: 95%; remaining binding at 100 µM [8]: 100%; remaining binding at 100 µM [9]: 100%; remaining binding at 100 µM [10]: 88%; remaining binding at 100 µM [11]: 68%; remaining binding at 100 µM [12]: 83%; remaining binding at 100 µM [13]: 72%; remaining binding at 100 µM [14]: 78%; remaining binding at 100 µM [15]: 94%; remaining binding at 100 µM [16]: 87%; remaining binding at 100 µM [17]: 90%; remaining binding at 100 µM [18]: 63%; remaining binding at 100 µM [19]: 92%; remaining binding at 100 µM [20]: 100%; remaining binding at 100 µM [21]: 85%
